Measured values as given in patent publication US12384776B2, “Compounds and uses thereof” (Foghorn Therapeutics Inc., priority 2019, dated 2025).

Target: BRD9 bromodomain (Homo sapiens (Human), UniProt Q9H8M2)
Assay: BRD9 bromodomain TR-FRET competition binding assay
Description: Procedure: His-Flag-BRD9 (P133-K239; Swiss Prot Q9H8M2; SEQ ID NO:1 mgsshhhhhhenlyfq/gdykddddkgslevlfqg/[…] […]) was cloned, expressed, purified, and then treated with TEV protease. Cleaved His tag was removed by purification. The binding of a biotinylated small molecule ligand of BRD9 was assessed via the LANCE® TR-FRET platform (PerkinElmer), and the compounds were assayed for inhibitory activity against this interaction.
Results: A mixture of biotinylated-ligand and SureLight™ Allophycocyanin-Streptavidin (APC-SA, PerkinElmer AD0201) in 50 mM HEPES (pH 7.4), 50 mM NaCl, 1 mM TCEP (pH 7), 0.01% (v/v) Tween-20, 0.01% (w/v) bovine serum albumin was added to a white 384-well PerkinElmer Proxiplate Plus plate. DMSO or 3-fold serially diluted compounds were then added to the Proxiplate followed by addition of Flag-BRD9. After a 10-minute incubation at room temperature, Eu—W1024 anti-FLAG (PerkinElmer, AD0273) was added. The final reaction mixture that contained 3.75 nM biotinylated ligand, 3 nM Flag-BRD9, 7.5 nM SureLight™ Allophycocyanin-Streptavidin, and 0.2 nM Eu—W1024 anti-FLAG was incubated at room temperature for 90 minutes.
The plates were then read on a PerkinElmer Envision plate reader to determine the ratio of emission at 665 nm over 615 nm. […]

Chain of BRD9 bromodomain (Q9H8M2 133-239): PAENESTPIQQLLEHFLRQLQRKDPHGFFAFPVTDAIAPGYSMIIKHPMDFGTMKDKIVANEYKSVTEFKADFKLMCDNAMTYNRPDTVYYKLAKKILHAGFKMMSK

| SMILES | IC50 [nM] |
| --- | --- |
| COc1cc(-c2cn(C)c(=O)c3c2CNC(C(=O)O)C3)cc(OC)c1CN(C)C (stereo not shown) [Compound B2, 8-[4-[(dimethylamino)methyl]-3,5-dimethoxyphenyl]-6-methyl-5-oxo-1,2,3,4,5,6-hexahydro-2,6-naphthyridine-3-carboxylic acid] | > 1000 |
| CNC(=O)C1Cc2c(c(-c3cc(OC)c(CN(C)C)c(OC)c3)cn(C)c2=O)CN1 (stereo not shown) [Compound B3, 8-[4-[(dimethylamino)methyl]-3,5-dimethoxyphenyl]-N,6-dimethyl-5-oxo-1,2,3,4,5,6-hexahydro-2,6-naphthyridine-3-carboxamide] | > 1000 |
| COc1cc(-c2cn(C)c(=O)c3c2CNC(C(N)=O)C3)cc(OC)c1CN(C)C (stereo not shown) [Compound B4, 8-[4-[(dimethylamino)methyl]-3,5-dimethoxyphenyl]-6-methyl-5-oxo-1,2,3,4,5,6-hexahydro-2,6-naphthyridine-3-carboxamide] | > 1000 |
| COc1cc(-c2cn(C)c(=O)c3c2CCN(CCO)C3)cc(OC)c1CN(C)C [Compound B10, 4-[4-[(dimethylamino)methyl]-3,5-dimethoxyphenyl]-7-(2-hydroxyethyl)-2-methyl-1,2,5,6,7,8-hexahydro-2,7-naphthyridin-1-one] | > 1000 |
| CCOC(=O)N1CCc2c(-c3cc(OC)c(CN(C)C)c(OC)c3)cn(C)c(=O)c2C1 [Compound B11, ethyl 5-[4-[(dimethylamino)methyl]-3,5-dimethoxyphenyl]-7-methyl-8-oxo-1,2,3,4,7,8-hexahydro-2,7-naphthyridine-2-carboxylate] | > 1000 |
| CCC(=O)N1CCc2c(-c3cc(OC)c(CN(C)C)c(OC)c3)cn(C)c(=O)c2C1 [Compound B12] | > 1000 |
| COc1cc(-c2cn(C)c(=O)c3c2CCN(C(C)=O)C3)cc(OC)c1CN(C)C [Compound B14, 7-acetyl-4-[4-[(dimethylamino)methyl]-3,5-dimethoxyphenyl]-2-methyl-1,2,5,6,7,8-hexahydro-2,7-naphthyridin-1-one] | > 1000 |
| CCN1CCc2c(-c3cc(OC)c(CN(C)C)c(OC)c3)cn(C)c(=O)c2C1 [Compound B15, 4-[4-[(dimethylamino)methyl]-3,5-dimethoxyphenyl]-7-ethyl-2-methyl-1,2,5,6,7,8-hexahydro-2,7-naphthyridin-1-one formic acid] | > 1000 |
| COc1cc(-c2cn(C)c(=O)c3c2CCN(C)C3)cc(OC)c1CN(C)C [Compound B16, 4-[4-[(dimethylamino)methyl]-3,5-dimethoxyphenyl]-2,7-dimethyl-1,2,5,6,7,8-hexahydro-2,7-naphthyridin-1-one formic acid] | > 1000 |
| COc1cc(-c2cn(C)c(=O)c3c2CCNC3)cc(OC)c1CN(C)C [Compound B17, 4-[4-[(dimethylamino)methyl]-3,5-dimethoxyphenyl]-2-methyl-1,2,5,6,7,8-hexahydro-2,7-naphthyridin-1-one] | > 1000 |
| COc1cc(-c2cn(C)c(=O)c3c2CN(C(=O)NCCOCCNc2cccc4c2C(=O)N(C2CCC(=O)NC2=O)C4=O)CC3)cc(OC)c1CN(C)C (stereo not shown) [Compound D27, 8-[4-[(dimethylamino)methyl]-3,5-dimethoxyphenyl]-N-[2-(2-[[2-(2,6-dioxopiperidin-3-yl)-1,3-dioxoisoindol-4-yl]amino]ethoxy)ethyl]-6-methyl-5-oxo-3,4-dihydro-1H-2,6-naphthyridine-2-carboxamide formic acid] | > 100 |

Now from value to molecule:

| IC50 [nM] | SMILES |
| --- | --- |
| < 10 | CCNC(=O)N1CCc2c(-c3cc(OC)c(CN(C)C)c(OC)c3)cn(C)c(=O)c2C1 [Compound B5, 5-(4-((dimethylamino)methyl)-3,5-dimethoxyphenyl)-N-ethyl-7-methyl-8-oxo-3,4,7,8-tetrahydro-2,7-naphthyridine-2 (1H)-carboxamide] |
| > 100 | COc1cc(-c2cn(C)c(=O)c3c2CCN(C(=O)N(C)C)C3)cc(OC)c1CN(C)C [Compound B6, 5-(4-((dimethylamino)methyl)-3,5-dimethoxyphenyl)-N,N,7-trimethyl-8-oxo-3,4,7,8-tetrahydro-2,7-naphthyridine-2 (1H)-carboxamide] |
| < 10 | CCCCNC(=O)N1CCc2c(-c3cc(OC)c(CN(C)C)c(OC)c3)cn(C)c(=O)c2C1 [Compound B7, N-butyl-5-(4-((dimethylamino)methyl)-3,5-dimethoxyphenyl)-7-methyl-8-oxo-3,4,7,8-tetrahydro-2,7-naphthyridine-2 (1H)-carboxamide] |
| > 10 | COc1cc(-c2cn(C)c(=O)c3c2CCN(C(=O)NC2CC2)C3)cc(OC)c1CN(C)C [Compound B8, N-cyclopropyl-5-(4-((dimethylamino)methyl)-3,5-dimethoxyphenyl)-7-methyl-8-oxo-3,4,7,8-tetrahydro-2,7-naphthyridine-2 (1H)-carboxamide] |
| < 10 | CNC(=O)N1CCc2c(-c3cc(OC)c(CN(C)C)c(OC)c3)cn(C)c(=O)c2C1 [Compound B9, 5-(4-((dimethylamino)methyl)-3,5-dimethoxyphenyl)-N,7-dimethyl-8-oxo-3,4,7,8-tetrahydro-2,7-naphthyridine-2 (1H)-carboxamide] |
| > 10 | COc1cc(-c2cn(C)c(=O)c3c2CCN(C(N)=O)C3)cc(OC)c1CN(C)C [Compound B13, 5-[4-[(dimethylamino)methyl]-3,5-dimethoxyphenyl]-7-methyl-8-oxo-1,2,3,4,7,8-hexahydro-2,7-naphthyridine-2-carboxamide] |
| > 10 | CNC(=O)N1CCc2c(c(-c3cc(OC)c(CN(C)C)c(OC)c3)cn(C)c2=O)C1 [Compound B18, 8-[4-[(dimethylamino)methyl]-3,5-dimethoxyphenyl]-N,6-dimethyl-5-oxo-3,4-dihydro-1H-2,6-naphthyridine-2-carboxamide] |
| > 10 | CCCCNS(=O)(=O)N1CCc2c(-c3cc(OC)c(CN(C)C)c(OC)c3)cn(C)c(=O)c2C1 [Compound B19, N-butyl-5-{4-[(dimethylamino)methyl]-3,5-dimethoxyphenyl}-7-methyl-8-oxo-1,2,3,4,7,8-hexahydro-2,7-naphthyridine-2-sulfonamide] |
| > 10 | CCCCNC(=S)N1CCc2c(-c3cc(OC)c(CN(C)C)c(OC)c3)cn(C)c(=O)c2C1 [Compound B20, N-butyl-5-(4-((dimethylamino)methyl)-3,5-dimethoxyphenyl)-7-methyl-8-oxo-3,4,7,8-tetrahydro-2,7-naphthyridine-2 (1H)-carbothioamide] |
| > 100 | COc1cc(-c2cn(C)c(=O)c3c2CN(C(=O)N(C)C)CC3)cc(OC)c1CN(C)C [Compound B21, 8-[4-[(dimethylamino)methyl]-3,5-dimethoxyphenyl]-N,N,6-trimethyl-5-oxo-3,4-dihydro-1H-2,6-naphthyridine-2-carboxamide] |
| < 10 | COc1cc(-c2cn(C)c(=O)c3c2CCN(C(=O)NC2CCN(CCOc4ccc5c(c4)C(=O)N(C4CCC(=O)NC4=O)C5=O)CC2)C3)cc(OC)c1CN(C)C (stereo not shown) [Compound D26, 5-[4-[(dimethylamino)methyl]-3,5-dimethoxyphenyl]-N-[1-(2-[[2-(2,6-dioxopiperidin-3-yl)-1,3-dioxoisoindol-5-yl]oxy]ethyl)piperidin-4-yl]-7-methyl-8-oxo-3,4-dihydro-1H-2,7-naphthyridine-2-carboxamide formic acid] |
| > 10 | COc1cc(-c2cn(C)c(=O)c3c2CCN(C(=O)NCCOCCOCC(=O)N[C@H](C(=O)N2C[C@H](O)C[C@H]2C(=O)NCc2ccc(-c4scnc4C)cc2)C(C)(C)C)C3)cc(OC)c1CN(C)C [Compound D34, (2S,4R)-1-[(2S)-2-(2-[2-[2-(5-[4-[(dimethylamino)methyl]-3,5-dimethoxyphenyl]-7-methyl-8-oxo-3,4-dihydro-1H-2,7-naphthyridine-2-carbonylamino)ethoxy]ethoxy]acetamido)-3,3-dimethylbutanoyl]-4-hydroxy-N-[[4-(4-methyl-1,3-thiazol-5-yl)phenyl]methyl]pyrrolidine-2-carboxamide formic acid] |
| > 10 | COc1cc(-c2cn(C)c(=O)c3c2CCN(C(=O)NCCOCCOCCOCC(=O)N[C@@H](C(=O)N2C[C@@H](O)C[C@@H]2C(=O)NCc2ccc(-c4scnc4C)cc2)C(C)(C)C)C3)cc(OC)c1CN(C)C [Compound D35, (2R,4S)-1-[(2R)-2-[2-(2-[2-[2-(5-[4-[(dimethylamino)methyl]-3,5-dimethoxyphenyl]-7-methyl-8-oxo-3,4-dihydro-1H-2,7-naphthyridine-2-carbonylamino)ethoxy]ethoxy]ethoxy)acetamido]-3,3-dimethylbutanoyl]-4-hydroxy-N-[[4-(4-methyl-1,3-thiazol-5-yl)phenyl]methyl]pyrrolidine-2-carboxamide] |
| > 10 | COc1cc(-c2cn(C)c(=O)c3c2CCN(C(=O)NCCCCCC(=O)N[C@H](C(=O)N2C[C@H](O)C[C@H]2C(=O)NCc2ccc(-c4scnc4C)cc2)C(C)(C)C)C3)cc(OC)c1CN(C)C [Compound D36, (2S,4R)-1-[(2S)-2-[6-(5-[4-[(dimethylamino)methyl]-3,5-dimethoxyphenyl]-7-methyl-8-oxo-3,4-dihydro-1H-2,7-naphthyridine-2-carbonylamino)hexanamido]-3,3-dimethylbutanoyl]-4-hydroxy-N-[[4-(4-methyl-1,3-thiazol-5-yl)phenyl]methyl]pyrrolidine-2-carboxamide] |
